The first assay deals with human CB1 receptors (Homo sapiens (Human), UniProt P21554). Description: functional cAMP assay, CB1. To be noted: CHO cells expressing human CB1. The assay is classed as cell-based. The method, then:
(§1) The growth medium was exchanged with Krebs Ringer Bicarbonate buffer with 1 mM IBMX and incubated at 30° C. for 30 min. Compounds were added to a final assay volume of 100 μl and incubated for 30 min at 30° C. Using the cAMP-Nano-TRF detection kit the assay (Roche Diagnostics) was stopped by the addition of 50 μl lysis reagent (Tris, NaCl, 1.5% Triton X100, 2.5% NP40, 10% NaN3) and 50 μl detection solutions (20 μM mAb Alexa700-cAMP 1:1, and 48 μM Ruthenium-2-AHA-cAMP) and shaken for 2 h at room temperature. The time-resolved energy transfer is measured by a TRF reader (Evotec Technologies GmbH), equipped with a ND:YAG laser as excitation source. The plate is measured twice with the excitation at 355 nm and at the emission with a delay of 100 ns and a gate of 100 ns, total exposure time 10 s at 730 (bandwidth 30 nm) or 645 nm (bandwidth 75 nm), respectively.
(§2) EC50 values were determined using Activity Base analysis (ID Business Solution, Limited).
Background: Cyclic AMP is a second messenger, typically raised through Gs and lowered through Gi signalling.
Chain of human CB1 receptors (P21554 whole entry): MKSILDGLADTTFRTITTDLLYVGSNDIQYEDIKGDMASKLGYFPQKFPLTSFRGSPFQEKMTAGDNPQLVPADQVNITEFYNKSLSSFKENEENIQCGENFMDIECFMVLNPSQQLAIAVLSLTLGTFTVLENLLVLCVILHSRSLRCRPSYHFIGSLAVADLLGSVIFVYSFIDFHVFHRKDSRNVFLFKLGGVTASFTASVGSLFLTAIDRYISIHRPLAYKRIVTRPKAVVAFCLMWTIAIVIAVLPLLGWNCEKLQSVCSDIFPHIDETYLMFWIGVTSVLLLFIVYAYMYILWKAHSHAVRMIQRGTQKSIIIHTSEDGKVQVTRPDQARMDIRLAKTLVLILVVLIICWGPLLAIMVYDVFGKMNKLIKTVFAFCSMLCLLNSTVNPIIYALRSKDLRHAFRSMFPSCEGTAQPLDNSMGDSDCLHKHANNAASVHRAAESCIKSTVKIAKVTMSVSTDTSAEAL
Chain of human CB2 receptors (P34972 whole entry): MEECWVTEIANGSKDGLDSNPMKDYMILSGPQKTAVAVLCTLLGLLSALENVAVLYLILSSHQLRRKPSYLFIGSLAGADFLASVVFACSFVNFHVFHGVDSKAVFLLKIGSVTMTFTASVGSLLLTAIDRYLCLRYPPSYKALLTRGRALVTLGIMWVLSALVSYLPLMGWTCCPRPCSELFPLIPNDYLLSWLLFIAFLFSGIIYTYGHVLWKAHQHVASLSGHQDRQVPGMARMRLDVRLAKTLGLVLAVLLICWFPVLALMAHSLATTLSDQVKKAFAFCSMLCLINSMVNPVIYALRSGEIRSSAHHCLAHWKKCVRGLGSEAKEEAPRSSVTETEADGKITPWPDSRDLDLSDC
One may read the EC50 as the concentration at which the effect is half-maximal. High values mean a less potent agent, low ones a more potent agent. Molecule `COCCn1cnc2c(N3CC(F)(F)C(F)(F)C3)nc(C(C)(C)C)nc21` [Example 83, 2-tert-butyl-9-(2-methoxyethyl)-6-(3,3,4,4-tetrafluoropyrrolidin-1-yl)purine] yielded an EC50 of more than 10 µM. On the same count and under the same terms, in the case of `CC(C)(C)c1nc(N2CCC[C@@H]2C#N)c2ncn(Cc3nnnn3C3CC3)c2n1` [Example 147, (2R)-1-[2-tert-butyl-9-[(1-cyclopropyltetrazol-5-yl)methyl]purin-6-yl]pyrrolidine-2-carbonitrile] it was more than 10 µM.

In turn, `CCCn1cnc2c(N3CCC(F)(F)C3)nc(C(C)(C)C)nc21` [Example 10, 2-tert-butyl-6-(3,3-difluoropyrrolidin-1-yl)-9-propylpurine] returned an EC50 of more than 10 µM. As for `CC(C)(C)Nc1nc(N2CC[C@H](O)C2)c2ncn(Cc3c[nH]nc3C(F)(F)F)c2n1` [Example 122, (3S)-1-[2-(tert-butylamino)-9-[[3-(trifluoromethyl)-1H-pyrazol-4-yl]methyl]purin-6-yl]pyrrolidin-3-ol], the EC50 was more than 10 µM.

Regarding `COCCn1cnc2c(N3CCC(F)(F)C3)nc(C(C)(C)C)nc21` [Example 15, 2-tert-butyl-6-(3,3-difluoropyrrolidin-1-yl)-9-(2-methoxyethyl)purine], the EC50 was more than 10 µM.

`CC(=O)N[C@H]1CCN(c2nc(C(C)(C)C)nc3c2ncn3Cc2nonc2C)C1` [Example 55, N—[(S)-1-[2-tert-butyl-9-[(4-methyl-1,2,5-oxadiazol-3-yl)methyl]purin-6-yl]pyrrolidin-3-yl]acetamide]: the EC50 is more than 10 µM. `CC(=O)N[C@H]1CCN(c2nc(C(C)(C)C)nc3c2ncn3Cc2ccccc2Cl)C1` [Example 48, N—{(S)-1-[2-tert-Butyl-9-(2-chloro-benzyl)-9H-purin-6-yl]-pyrrolidin-3-yl}-acetamide] displayed an EC50 of more than 10 µM.

`Cc1nnc(Cn2cnc3c(N4CCC(F)(F)C4)nc(NC(C)(C)C)nc32)o1` [Example 109, N-tert-butyl-6-(3,3-difluoropyrrolidin-1-yl)-9-[(5-methyl-1,3,4-oxadiazol-2-yl)methyl]purin-2-amine]: the EC50 is more than 10 µM. As to `CC(C)(C)c1nc(N2CC[C@H](O)C2)c2ncn(Cc3nnnn3C(C)(C)C)c2n1` [Example 166, (3S)-1-[2-tert-butyl-9-[(1-tert-butyltetrazol-5-yl)methyl]purin-6-yl]pyrrolidin-3-ol], the EC50 was more than 10 µM.

Turning to `Cc1nonc1Cn1cnc2c(N3CC(F)(F)C(F)(F)C3)nc(C(C)(C)C)nc21` [Example 82, 3-[[2-tert-butyl-6-(3,3,4,4-tetrafluoropyrrolidin-1-yl)purin-9-yl]methyl]-4-methyl-1,2,5-oxadiazole], the 50% effective concentration (EC50) is more than 10 µM. `Cc1nonc1Cn1cnc2c(N3CCC(C)(O)C3)nc(C(C)(C)C)nc21` (stereo not drawn) [Example 70, 1-[2-tert-butyl-9-[(4-methyl-1,2,5-oxadiazol-3-yl)methyl]purin-6-yl]-3-methylpyrrolidin-3-ol] displayed a 50% effective concentration (EC50) of more than 10 µM.

In turn, `CCCn1cnc2c(N3CCC(O)C3)nc(C(C)(C)C)nc21` (stereo not drawn) [Example 36, 1-(2-tert-butyl-9-propylpurin-6-yl)pyrrolidin-3-ol] registered an EC50 of more than 10 µM. On the same count and under the same terms, in the case of `CC1(O)CCN(c2nc(C(C)(C)C)nc3c2ncn3Cc2ccc(Cl)cc2)C1` (stereo not drawn) [Example 66, 1-[2-tert-butyl-9-[(4-chlorophenyl)methyl]purin-6-yl]-3-methylpyrrolidin-3-ol] it was more than 10 µM.

In turn, `CC(C)(C)c1nc(N2CCC[C@@H]2CO)c2ncn(Cc3nnnn3C3CC3)c2n1` [Example 146, [(2R)-1-[2-tert-butyl-9-[(1-cyclopropyltetrazol-5-yl)methyl]purin-6-yl]pyrrolidin-2-yl]methanol] returned an EC50 of more than 10 µM. Still for that read-out and setting: in the case of `CC(C)(C)c1nc(N2CCC(F)(F)C2)c2ncn(CCC(F)(F)F)c2n1` [Example 19, 2-tert-butyl-6-(3,3-difluoropyrrolidin-1-yl)-9-(3,3,3-trifluoropropyl)purine] it was more than 10 µM; in that of `Cc1nonc1Cn1cnc2c(N3CCN(C)CC3)nc(C(C)(C)C)nc21` [Example 144, 3-[[2-tert-butyl-6-(4-methylpiperazin-1-yl)purin-9-yl]methyl]-4-methyl-1,2,5-oxadiazole], more than 10 µM; in that of `COCCn1cnc2c(N3CCC(C)(O)C3)nc(C(C)(C)C)nc21` (stereo not drawn) [Example 71, 1-[2-tert-butyl-9-(2-methoxyethyl)purin-6-yl]-3-methylpyrrolidin-3-ol], more than 10 µM. `CC(C)(C)c1nc(N2CC(F)(F)C2)c2ncn(Cc3ncccc3Cl)c2n1` [Example 160, 2-tert-butyl-9-[(3-chloropyridin-2-yl)methyl]-6-(3,3-difluoroazetidin-1-yl)purine]: the EC50 is more than 10 µM. `Cc1ccc(Cn2cnc3c(N4CCC(F)(F)C4)nc(C(C)(C)C)nc32)cc1` [Example 3, 2-tert-butyl-6-(3,3-difluoropyrrolidin-1-yl)-9-[(4-methylphenyl)methyl]purine] yielded an EC50 of more than 10 µM. Take `CC(C)(C)Nc1nc(N2CC3(COC3)C2)c2ncn(Cc3ccccc3C(F)(F)F)c2n1` [Example 137, N-tert-butyl-6-(2-oxa-6-azaspiro[3.3]heptan-6-yl)-9-[[2-(trifluoromethyl)phenyl]methyl]purin-2-amine]: the EC50 is more than 10 µM. As for `CC(C)(C)c1nc(N2CC(F)(F)C(F)(F)C2)c2ncn(Cc3ccccc3Cl)c2n1` [Example 72, 2-tert-butyl-9-[(2-chlorophenyl)methyl]-6-(3,3,4,4-tetrafluoropyrrolidin-1-yl)purine], the EC50 is more than 10 µM.

Molecule `CC(C)(C)c1nc(N2CC[C@H](O)C2)c2ncn(Cc3ccc(Cl)cc3)c2n1` [Example 88, (3S)-1-[2-tert-butyl-9-[(4-chlorophenyl)methyl]purin-6-yl]pyrrolidin-3-ol] returned an EC50 of more than 10 µM. `CC(C)(C)c1nc(N2CCC(O)C2)c2ncn(Cc3ccc(Cl)cc3)c2n1` (stereo not drawn) [Example 26, 1-[2-tert-butyl-9-[(4-chlorophenyl)methyl]purin-6-yl]pyrrolidin-3-ol]: the EC50 was more than 10 µM.

The target in a further assay is human CB2 receptors (Homo sapiens (Human), UniProt P34972). The experiment in a line: functional cAMP assay, CB2. Type of assay: cell-based. To be noted: CHO cells expressing human CB2. The method, then:
as §1, §2
The molecule `COCCn1cnc2c(N3CC(F)(F)C(F)(F)C3)nc(C(C)(C)C)nc21` [Example 83, 2-tert-butyl-9-(2-methoxyethyl)-6-(3,3,4,4-tetrafluoropyrrolidin-1-yl)purine] yielded an EC50 of 0.0646 µM. In turn, `CC(C)(C)c1nc(N2CCC[C@@H]2C#N)c2ncn(Cc3nnnn3C3CC3)c2n1` [Example 147, (2R)-1-[2-tert-butyl-9-[(1-cyclopropyltetrazol-5-yl)methyl]purin-6-yl]pyrrolidine-2-carbonitrile] came in with an EC50 of 0.176 µM. The molecule `CC(C)(C)c1nc(N2CCC(F)(F)C2)c2ncn(Cc3cccnc3Cl)c2n1` [Example 6, 2-tert-butyl-9-[(2-chloropyridin-3-yl)methyl]-6-(3,3-difluoropyrrolidin-1-yl)purine] gave an EC50 of 0.0005 µM. Still for that read-out and setting: in the case of `CC(C)(C)c1nc(N2CCC(F)(F)C2)c2ncn(CCc3ccccc3)c2n1` [Example 13, 2-tert-butyl-6-(3,3-difluoropyrrolidin-1-yl)-9-(2-phenylethyl)purine] it was 0.0054 µM; in that of `CC(C)(C)c1nc(N2CCC(F)(F)C2)c2ncn(Cc3c[nH]nc3C(F)(F)F)c2n1` [Example 41, 2-tert-butyl-6-(3,3-difluoropyrrolidin-1-yl)-9-[[3-(trifluoromethyl)-1H-pyrazol-4-yl]methyl]purine], 0.0092 µM; in that of `CC(C)(C)c1nc(N2CCC(F)(F)C2)c2ncn(Cc3ccccc3C(F)(F)F)c2n1` [Example 5, 2-tert-butyl-6-(3,3-difluoropyrrolidin-1-yl)-9-[[2-(trifluoromethyl)phenyl]methyl]purine], 0.0007 µM. As for `CC(C)(C)c1nc(N2CCC(F)(F)C2)c2ncn(Cc3ccccc3Cl)c2n1` [Example 2, 2-tert-butyl-9-[(2-chlorophenyl)methyl]-6-(3,3-difluoropyrrolidin-1-yl)purine], the EC50 came to 0.0006 µM.

The values above are taken from patent publication US9505762B2, “Purine derivatives as CB2 receptor agonists” (Hoffmann-La Roche Inc., priority 2013, dated 2016).
